Experiments:
Test in all cases: KINOMEscan competitive binding, whole panel
[1] = molecular target: T1, panel of 203 kinases (Homo sapiens, UniProt Q13043); conditions: 10 µM, n=1; kinase MST1; read-out: Percent inhibition MST1
T1 construct: purchased DiscoverX (KINOMEscan)
T1 sequence (Q13043 1-487): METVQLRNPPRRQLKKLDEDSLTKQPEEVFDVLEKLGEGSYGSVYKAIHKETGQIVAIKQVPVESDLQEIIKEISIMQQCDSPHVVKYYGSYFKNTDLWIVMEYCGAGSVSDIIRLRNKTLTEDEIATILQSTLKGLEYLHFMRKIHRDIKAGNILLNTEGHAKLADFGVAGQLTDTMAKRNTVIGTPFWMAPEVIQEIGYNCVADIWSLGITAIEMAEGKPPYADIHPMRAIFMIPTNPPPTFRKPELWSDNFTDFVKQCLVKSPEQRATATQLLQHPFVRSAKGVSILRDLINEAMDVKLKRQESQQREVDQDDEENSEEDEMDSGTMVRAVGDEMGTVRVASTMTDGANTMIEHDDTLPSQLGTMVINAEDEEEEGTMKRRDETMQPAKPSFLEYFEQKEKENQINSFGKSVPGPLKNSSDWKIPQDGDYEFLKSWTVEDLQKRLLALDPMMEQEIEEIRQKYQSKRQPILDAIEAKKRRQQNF
Procedure, shortened: (§1)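 This competitive binding format measures displacement of T7 phage-tagged kinases from an immobilized ATP-site ligand by the test compound; values are percentage inhibition.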

[2] = molecular target: T2, panel of 203 kinases (Homo sapiens, UniProt O94804); conditions: 10 µM, n=1; kinase LOK; read-out: Percent inhibition LOK
T2 construct: purchased DiscoverX (KINOMEscan)
T2 sequence (O94804 whole entry): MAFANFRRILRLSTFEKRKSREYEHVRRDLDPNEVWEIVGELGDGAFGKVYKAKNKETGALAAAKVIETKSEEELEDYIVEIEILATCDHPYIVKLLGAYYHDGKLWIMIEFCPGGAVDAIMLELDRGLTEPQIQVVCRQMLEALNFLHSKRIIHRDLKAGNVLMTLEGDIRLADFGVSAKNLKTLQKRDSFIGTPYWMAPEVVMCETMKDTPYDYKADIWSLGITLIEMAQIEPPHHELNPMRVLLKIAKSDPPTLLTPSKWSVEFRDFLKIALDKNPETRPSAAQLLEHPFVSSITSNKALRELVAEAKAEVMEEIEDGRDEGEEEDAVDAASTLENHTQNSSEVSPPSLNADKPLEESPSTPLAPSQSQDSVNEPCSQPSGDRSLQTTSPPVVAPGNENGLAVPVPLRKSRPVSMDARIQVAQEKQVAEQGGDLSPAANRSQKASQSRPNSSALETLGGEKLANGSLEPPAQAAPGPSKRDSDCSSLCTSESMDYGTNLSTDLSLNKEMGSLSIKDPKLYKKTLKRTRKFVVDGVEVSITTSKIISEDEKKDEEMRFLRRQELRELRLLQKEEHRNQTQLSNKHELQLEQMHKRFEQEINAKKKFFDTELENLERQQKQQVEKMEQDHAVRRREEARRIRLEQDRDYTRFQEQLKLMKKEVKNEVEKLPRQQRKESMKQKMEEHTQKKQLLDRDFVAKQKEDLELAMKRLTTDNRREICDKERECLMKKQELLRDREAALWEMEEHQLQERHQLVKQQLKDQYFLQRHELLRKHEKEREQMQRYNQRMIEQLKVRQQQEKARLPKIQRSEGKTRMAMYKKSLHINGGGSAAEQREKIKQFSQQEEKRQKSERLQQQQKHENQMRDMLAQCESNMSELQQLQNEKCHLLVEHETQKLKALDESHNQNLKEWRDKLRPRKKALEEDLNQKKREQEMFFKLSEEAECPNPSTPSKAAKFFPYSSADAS
Procedure, shortened: as §1

[3] = molecular target: T3, panel of 203 kinases (Homo sapiens, UniProt Q9Y243); conditions: 10 µM, n=1; kinase AKT3; read-out: Percent inhibition AKT3
T3 construct: purchased DiscoverX (KINOMEscan)
T3 sequence (Q9Y243 whole entry): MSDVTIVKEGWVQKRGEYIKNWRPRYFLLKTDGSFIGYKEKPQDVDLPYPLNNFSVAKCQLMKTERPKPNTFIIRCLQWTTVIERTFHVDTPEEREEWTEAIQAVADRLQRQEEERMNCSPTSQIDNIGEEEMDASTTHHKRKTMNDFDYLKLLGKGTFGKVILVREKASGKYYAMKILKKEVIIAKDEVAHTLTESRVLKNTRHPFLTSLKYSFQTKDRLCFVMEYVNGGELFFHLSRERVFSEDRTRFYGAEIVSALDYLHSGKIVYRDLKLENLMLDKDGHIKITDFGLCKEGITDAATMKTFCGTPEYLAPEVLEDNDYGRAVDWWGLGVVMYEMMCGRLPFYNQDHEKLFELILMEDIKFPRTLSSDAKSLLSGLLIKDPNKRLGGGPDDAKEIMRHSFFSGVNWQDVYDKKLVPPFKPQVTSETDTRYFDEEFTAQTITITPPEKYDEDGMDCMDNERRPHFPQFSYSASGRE
Procedure, shortened: as §1

[4] = molecular target: T4, panel of 203 kinases (Homo sapiens, UniProt P54756); conditions: 10 µM, n=1; kinase EPHA5; read-out: Percent inhibition EPHA5
T4 construct: purchased DiscoverX (KINOMEscan)
Procedure, shortened: as §1

[5] = molecular target: T5, panel of 203 kinases (Homo sapiens, UniProt Q9UM73); conditions: 10 µM, n=1; kinase ALK; read-out: Percent inhibition ALK
T5 construct: purchased DiscoverX (KINOMEscan)
T5 sequence (Q9UM73 19-1620): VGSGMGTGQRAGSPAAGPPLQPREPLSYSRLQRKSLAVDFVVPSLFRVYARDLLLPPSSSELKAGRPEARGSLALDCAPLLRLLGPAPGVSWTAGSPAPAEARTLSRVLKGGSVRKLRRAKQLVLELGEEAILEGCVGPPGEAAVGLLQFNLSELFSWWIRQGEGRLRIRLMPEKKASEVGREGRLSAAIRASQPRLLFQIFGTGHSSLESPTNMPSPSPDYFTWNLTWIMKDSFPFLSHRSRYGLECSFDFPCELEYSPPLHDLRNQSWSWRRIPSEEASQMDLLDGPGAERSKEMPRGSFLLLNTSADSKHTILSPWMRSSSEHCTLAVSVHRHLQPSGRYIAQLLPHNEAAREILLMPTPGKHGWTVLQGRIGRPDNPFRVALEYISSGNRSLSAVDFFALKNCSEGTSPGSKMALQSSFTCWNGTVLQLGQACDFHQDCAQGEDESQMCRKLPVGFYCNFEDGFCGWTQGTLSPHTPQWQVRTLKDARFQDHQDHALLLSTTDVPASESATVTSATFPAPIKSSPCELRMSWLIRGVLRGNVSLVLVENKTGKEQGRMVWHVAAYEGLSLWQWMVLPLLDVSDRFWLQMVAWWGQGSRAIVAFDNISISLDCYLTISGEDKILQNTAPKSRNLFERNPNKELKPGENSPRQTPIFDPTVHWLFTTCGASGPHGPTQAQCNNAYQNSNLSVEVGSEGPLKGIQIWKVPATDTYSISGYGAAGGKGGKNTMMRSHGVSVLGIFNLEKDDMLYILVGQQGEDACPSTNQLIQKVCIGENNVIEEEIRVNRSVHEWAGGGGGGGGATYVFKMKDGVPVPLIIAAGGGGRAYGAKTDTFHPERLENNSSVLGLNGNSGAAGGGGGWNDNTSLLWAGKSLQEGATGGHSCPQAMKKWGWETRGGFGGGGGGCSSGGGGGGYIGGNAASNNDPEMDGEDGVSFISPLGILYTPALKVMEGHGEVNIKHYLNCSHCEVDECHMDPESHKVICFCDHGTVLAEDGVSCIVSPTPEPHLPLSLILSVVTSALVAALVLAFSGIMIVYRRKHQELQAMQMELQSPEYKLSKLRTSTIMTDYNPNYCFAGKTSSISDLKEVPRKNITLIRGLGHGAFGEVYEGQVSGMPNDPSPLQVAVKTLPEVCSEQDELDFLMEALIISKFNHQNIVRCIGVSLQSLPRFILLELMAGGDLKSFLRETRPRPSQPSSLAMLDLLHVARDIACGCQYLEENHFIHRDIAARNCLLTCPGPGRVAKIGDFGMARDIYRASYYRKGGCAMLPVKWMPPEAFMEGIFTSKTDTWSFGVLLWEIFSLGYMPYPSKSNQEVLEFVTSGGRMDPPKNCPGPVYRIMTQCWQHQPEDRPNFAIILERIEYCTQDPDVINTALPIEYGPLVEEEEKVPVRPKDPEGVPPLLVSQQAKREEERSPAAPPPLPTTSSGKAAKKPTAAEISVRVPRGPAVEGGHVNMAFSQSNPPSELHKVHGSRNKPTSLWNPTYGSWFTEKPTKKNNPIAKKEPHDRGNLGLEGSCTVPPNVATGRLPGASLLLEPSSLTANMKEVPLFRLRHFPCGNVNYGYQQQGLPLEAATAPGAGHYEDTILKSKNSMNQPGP
Procedure, shortened: as §1

[6] = molecular target: T6, panel of 203 kinases (Homo sapiens, UniProt Q96GD4); conditions: 10 µM, n=1; kinase AURKB; read-out: Percent inhibition AURKB
T6 construct: purchased DiscoverX (KINOMEscan)
T6 sequence (Q96GD4 whole entry): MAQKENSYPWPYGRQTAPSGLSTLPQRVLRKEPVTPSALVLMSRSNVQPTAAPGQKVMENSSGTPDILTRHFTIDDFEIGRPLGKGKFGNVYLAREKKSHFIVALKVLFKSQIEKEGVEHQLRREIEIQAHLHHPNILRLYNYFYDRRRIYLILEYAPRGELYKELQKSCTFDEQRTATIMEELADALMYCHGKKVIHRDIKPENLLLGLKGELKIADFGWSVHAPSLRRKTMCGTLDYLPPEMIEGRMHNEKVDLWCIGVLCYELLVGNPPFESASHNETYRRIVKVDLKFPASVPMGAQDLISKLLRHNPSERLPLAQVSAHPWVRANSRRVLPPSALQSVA
Procedure, shortened: as §1

[7] = molecular target: T7, panel of 203 kinases (Homo sapiens, UniProt Q7KZI7); conditions: 10 µM, n=1; kinase MARK2; read-out: Percent inhibition MARK2
T7 construct: purchased DiscoverX (KINOMEscan)
Procedure, shortened: as §1

[8] = molecular target: T8, panel of 203 kinases (Homo sapiens, UniProt Q08881); conditions: 10 µM, n=1; kinase ITK; read-out: Percent inhibition ITK
T8 construct: purchased DiscoverX (KINOMEscan)
T8 sequence (Q08881 1-620): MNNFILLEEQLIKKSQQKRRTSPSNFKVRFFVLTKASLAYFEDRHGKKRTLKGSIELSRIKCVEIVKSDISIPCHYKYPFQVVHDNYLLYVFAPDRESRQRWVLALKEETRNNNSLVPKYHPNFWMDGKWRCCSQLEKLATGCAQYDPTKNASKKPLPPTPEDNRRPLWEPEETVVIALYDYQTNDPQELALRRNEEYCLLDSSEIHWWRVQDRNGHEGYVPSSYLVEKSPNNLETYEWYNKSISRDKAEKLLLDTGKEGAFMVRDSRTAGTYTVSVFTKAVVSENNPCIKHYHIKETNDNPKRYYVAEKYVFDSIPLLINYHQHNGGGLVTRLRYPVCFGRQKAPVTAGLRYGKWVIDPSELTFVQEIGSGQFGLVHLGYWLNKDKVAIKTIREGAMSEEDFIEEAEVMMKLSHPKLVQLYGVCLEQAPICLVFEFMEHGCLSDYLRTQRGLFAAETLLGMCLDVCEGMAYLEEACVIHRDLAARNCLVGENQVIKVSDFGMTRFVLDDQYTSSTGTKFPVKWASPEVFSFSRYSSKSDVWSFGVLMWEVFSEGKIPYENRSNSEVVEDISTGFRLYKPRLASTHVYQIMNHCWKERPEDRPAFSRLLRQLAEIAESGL
Procedure, shortened: as §1

[9] = molecular target: T9, panel of 203 kinases (Homo sapiens, UniProt Q16539); conditions: 10 µM, n=1; kinase p38-alpha; read-out: Percent inhibition p38-alpha
T9 construct: purchased DiscoverX (KINOMEscan)
T9 sequence (Q16539 whole entry): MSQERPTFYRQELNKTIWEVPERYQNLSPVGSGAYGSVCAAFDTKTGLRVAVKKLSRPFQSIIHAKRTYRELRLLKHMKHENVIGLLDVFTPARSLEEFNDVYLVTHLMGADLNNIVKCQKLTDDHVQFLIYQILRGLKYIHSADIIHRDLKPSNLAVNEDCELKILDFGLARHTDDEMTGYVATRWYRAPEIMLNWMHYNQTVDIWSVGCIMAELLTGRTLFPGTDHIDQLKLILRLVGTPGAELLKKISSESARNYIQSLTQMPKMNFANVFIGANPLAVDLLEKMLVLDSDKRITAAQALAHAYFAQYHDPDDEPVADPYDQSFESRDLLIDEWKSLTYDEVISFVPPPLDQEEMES
Procedure, shortened: as §1

[10] = molecular target: T10, panel of 203 kinases (Homo sapiens, UniProt Q16584); conditions: 10 µM, n=1; kinase MLK3; read-out: Percent inhibition MLK3
T10 construct: purchased DiscoverX (KINOMEscan)
Procedure, shortened: as §1

[11] = molecular target: T11, panel of 203 kinases (Homo sapiens, UniProt Q06187); conditions: 10 µM, n=1; kinase BTK; read-out: Percent inhibition BTK
T11 construct: purchased DiscoverX (KINOMEscan)
T11 sequence (Q06187 whole entry): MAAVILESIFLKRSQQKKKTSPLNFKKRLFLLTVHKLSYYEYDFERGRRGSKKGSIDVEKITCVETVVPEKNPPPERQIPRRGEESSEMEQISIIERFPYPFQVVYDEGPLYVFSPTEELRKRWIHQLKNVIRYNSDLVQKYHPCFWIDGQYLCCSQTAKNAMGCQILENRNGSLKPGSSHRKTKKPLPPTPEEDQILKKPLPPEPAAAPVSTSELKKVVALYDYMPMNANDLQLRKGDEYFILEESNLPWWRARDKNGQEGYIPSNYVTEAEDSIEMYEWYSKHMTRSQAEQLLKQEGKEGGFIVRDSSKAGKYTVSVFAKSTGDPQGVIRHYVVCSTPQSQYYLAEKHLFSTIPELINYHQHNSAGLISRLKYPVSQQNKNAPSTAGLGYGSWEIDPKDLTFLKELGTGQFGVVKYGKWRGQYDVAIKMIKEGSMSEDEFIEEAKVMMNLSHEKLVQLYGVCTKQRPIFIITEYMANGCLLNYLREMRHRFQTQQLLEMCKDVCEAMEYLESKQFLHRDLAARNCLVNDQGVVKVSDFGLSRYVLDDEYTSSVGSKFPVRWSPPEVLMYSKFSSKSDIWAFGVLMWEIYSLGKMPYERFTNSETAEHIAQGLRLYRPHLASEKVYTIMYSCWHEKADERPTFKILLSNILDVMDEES
Procedure, shortened: as §1

Row | Structure (SMILES) | inhibition at 10 µM [1] [%] | inhibition at 10 µM [2] [%] | inhibition at 10 µM [3] [%] | inhibition at 10 µM [4] [%] | inhibition at 10 µM [5] [%] | inhibition at 10 µM [6] [%] | inhibition at 10 µM [7] [%] | inhibition at 10 µM [8] [%] | inhibition at 10 µM [9] [%] | inhibition at 10 µM [10] [%] | inhibition at 10 µM [11] [%]
1 | C[C@@H](Oc1cc(-c2cnc3ccccn23)sc1C(N)=O)c1ccccc1Cl [Compound 8] | 0 | 100 | 0 | 0 | 0 | 87.3 | 0 | 0 | 0 | 0 | 0
2 | Cc1ccc(O)cc1N(C)c1ccnc(Nc2cccc(S(N)(=O)=O)c2)n1 [Compound 4] | 0 | 99.6 | 0 | 100 | 0 | 79.5 | 66 | 0 | 99.1 | 81 | 95
3 | COc1cc(Nc2nccc(-c3sc(N)nc3-c3cccc(NC(=O)c4c(F)cccc4F)c3)n2)cc(OC)c1OC [Compound 7] | 97.4 | 100 | 0 | 100 | 0 | 100 | 73.7 | 0 | 98.5 | 99.8 | 100
4 | CN1CCN(c2ccc(Nc3nccc(-c4cnn5ncccc45)n3)cc2C#N)CC1 [Compound 1] | 99.3 | 88.7 | 0 | 80.2 | 99.1 | 88.5 | 92 | 79 | 0 | 0 | 0
5 | Fc1cccc(COc2ccc(Nc3ncnc4c3CN(CCN3CCOCC3)CC4)cc2Cl)c1 [Compound 6] | 0 | 0 | 0 | 0 | 0 | 0 | 0 | 0 | 0 | 0 | 0
6 | Cc1ccc(O)cc1Nc1ccnc(Nc2cccc(C(N)=O)c2)n1 [Compound 3] | 0 | 82.6 | 0 | 100 | 0 | 82.8 | 0 | 0 | 77.8 | 69.4 | 96
7 | Clc1ccc(Nc2ncc(-c3ccccc3)s2)cc1 [Compound 10] | 0 | 0 | 0 | 0 | 0 | 0 | 0 | 0 | 0 | 0 | 0
8 | COc1ccc(Nc2nccc(-c3cnn4ncccc34)n2)cc1 [Compound 2] | 0 | 0 | 0 | 91.8 | 94.8 | 93.3 | 0 | 0 | 0 | 75.5 | 0
9 | c1ccc(COc2cccc(-c3ccnc4[nH]ccc34)c2)cc1 [Compound 9] | 0 | 0 | 0 | 0 | 0 | 0 | 0 | 0 | 0 | 0 | 0
10 | Nc1ncc2c(-c3ccncc3)c[nH]c2n1 [Compound 11] | 0 | 0 | 0 | 0 | 0 | 65.6 | 0 | 73.2 | 0 | 82.8 | 0

— paper PMC9927415, “Tyrosine Kinase Inhibitors Display Potent Activity against Cryptosporidium parvum” (Microbiology Spectrum, 2022)
